The record followed here is article PMC13505187, “Fragment-Based Discovery of Fenamic Acids as Pan-Species Inhibitors of the Soluble Epoxide Hydrolase Phosphatase Domain” (ACS Chemical Biology, 2026).

Holding throughout (format): biochemical
The target of assay [1] is T1, human sEH-NTD (Homo sapiens, UniProt P34913).
T1 construct: made in house
T1 sequence (P34913 1-224 limits assumed): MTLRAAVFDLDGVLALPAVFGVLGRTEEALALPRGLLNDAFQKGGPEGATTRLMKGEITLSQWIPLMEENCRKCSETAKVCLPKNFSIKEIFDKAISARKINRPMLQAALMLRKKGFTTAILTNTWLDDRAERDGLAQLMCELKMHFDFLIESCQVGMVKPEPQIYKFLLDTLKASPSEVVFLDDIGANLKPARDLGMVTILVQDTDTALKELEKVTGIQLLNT
Put plainly: FDP-based phosphatase assay, isolated N-terminal domain. Particulars: phosphatase activity of the isolated N-terminal domain, FDP substrate, pH 5.75; mean ± SD, n = 3. As for the experimental part: (§1) The FDP assay was performed as published previously by Klingler et al. using frozen sEH-PD as well as full-length human, mouse, and rat sEH. In brief, the assay was performed in a black 96-well microplate in which 1 μL of compound in DMSO (or DMSO only in the case of the positive control) was mixed with 89 μL of protein solution (final concentration of 0.1 μM for sEH-PD, full-length human sEH, and full-length rat sEH and 0.01 μM for full-length mouse sEH) in phosphatase assay buffer (50 mM acetate, 10 mM MgCl2, pH 5.75) supplemented with 0.01% w/v Triton X-100. For the blank, assay buffer without protein was used. The plates were incubated at rt for 30 min to allow binding of the inhibitor. To start the reaction, 10 μL of FDP solution (10 μM final concentration) in assay buffer was added, and the fluorescence changes (λex = 485 nm, λem = 525 nm) were detected at 30 time points over the duration of 30 min using an Infinite F200 PRO plate reader (Tecan, Crailsheim, Germany). All samples were measured in triplicate. The percent inhibition was calculated relative to the activities of the blank well (without protein) and positive control well (without inhibitor).

Assay [2] has as its target T2, human sEH-FL (H) (Homo sapiens, UniProt P34913).
T2 construct: The full-length human sEH was previously published by Lukin et al; made in house
T2 sequence (P34913 1-555): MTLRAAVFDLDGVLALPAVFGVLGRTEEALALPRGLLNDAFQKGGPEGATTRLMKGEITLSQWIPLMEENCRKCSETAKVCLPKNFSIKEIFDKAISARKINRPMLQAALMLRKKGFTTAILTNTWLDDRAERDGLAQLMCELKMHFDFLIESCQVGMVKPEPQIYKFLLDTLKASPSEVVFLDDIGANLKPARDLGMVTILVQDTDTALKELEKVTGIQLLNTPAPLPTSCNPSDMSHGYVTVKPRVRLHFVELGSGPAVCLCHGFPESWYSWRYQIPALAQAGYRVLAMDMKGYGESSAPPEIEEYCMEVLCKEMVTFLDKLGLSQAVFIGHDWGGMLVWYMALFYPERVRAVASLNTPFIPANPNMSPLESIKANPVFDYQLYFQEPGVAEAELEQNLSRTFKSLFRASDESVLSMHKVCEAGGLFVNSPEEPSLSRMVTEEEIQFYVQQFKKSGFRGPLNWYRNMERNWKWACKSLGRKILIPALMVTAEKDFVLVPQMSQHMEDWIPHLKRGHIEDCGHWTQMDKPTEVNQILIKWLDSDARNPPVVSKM
Put plainly: PHOME-based hydrolase assay, full-length sEH. Conditions: hydrolase activity of the full-length sEH protein, PHOME substrate; mean ± SD, n = 3.
Protocol: The fluorescence-based sEH hydrolase activity assay was performed as described previously in a 96-well format with some minor modifications. In short, full-length sEH (3 nM final concentration for all tested proteins) was dissolved in hydrolase assay buffer (Bis-Tris buffer, pH 7) supplemented with 0.1 mg mL^–1 BSA as well as Triton-X 100 to a final concentration of 0.01%. Protein solution (89 μL) was incubated with 1 μL of different concentrations of compounds (final DMSO concentration 1%) for 30 min at rt. The reaction was started by addition of 10 μL of a cyano­(6-methoxy-2-naphthalenyl)­methyl 3-phenyloxiran-2-ylacetate (PHOME) solution (final concentration of 50 μM). Hydrolysis of the nonfluorescent substrate by sEH to release fluorescent 6-methoxynaphthaldehyde was measured (λex = 330 nm, λem = 465 nm) using a Tecan Infinite F200PRO plate reader. The reaction was monitored over a duration of 45 min (one point every minute). A blank control (no protein and no compound) and a positive control (no compound) were carried out as well. All measurements were performed in triplicate.

Assay [3] has as its target T3, rat sEH-FL (P) (Rattus norvegicus, UniProt P80299).
T3 construct: using frozen sEH-PD as well as full-length human, mouse, and rat sEH
T3 sequence (P80299 1-554): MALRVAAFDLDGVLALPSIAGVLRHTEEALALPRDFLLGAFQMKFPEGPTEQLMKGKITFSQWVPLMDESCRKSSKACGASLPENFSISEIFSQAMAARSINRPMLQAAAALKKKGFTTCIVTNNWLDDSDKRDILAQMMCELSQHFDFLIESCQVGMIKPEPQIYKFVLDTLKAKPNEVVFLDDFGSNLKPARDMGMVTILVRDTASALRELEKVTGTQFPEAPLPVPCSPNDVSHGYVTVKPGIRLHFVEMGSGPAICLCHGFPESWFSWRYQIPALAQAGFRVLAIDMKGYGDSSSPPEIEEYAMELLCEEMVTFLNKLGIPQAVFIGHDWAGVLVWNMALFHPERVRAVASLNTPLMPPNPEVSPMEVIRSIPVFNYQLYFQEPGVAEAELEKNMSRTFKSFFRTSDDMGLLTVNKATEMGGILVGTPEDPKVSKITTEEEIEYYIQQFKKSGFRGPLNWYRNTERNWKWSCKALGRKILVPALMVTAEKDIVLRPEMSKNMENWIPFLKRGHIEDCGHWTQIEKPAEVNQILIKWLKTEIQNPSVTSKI
The assay is described as follows: FDP-based phosphatase assay, full-length sEH. Particulars: phosphatase activity of the full-length sEH protein, FDP substrate; mean ± SD, n = 3. As for the experimental part:
as §1

Assay [4] deals with T4, human sEH-FL (P) (Homo sapiens, UniProt P34913).
T4 construct: The full-length human sEH was previously published by Lukin et al; made in house
T4 sequence (P34913 1-555): T2 sequence (P34913 1-555)
The assay is described as follows: FDP-based phosphatase assay, full-length sEH. Conditions: phosphatase activity of the full-length sEH protein, FDP substrate; mean ± SD, n = 3. As for the experimental part: as §1

`O=C(O)CCCc1nc(-c2ccc(Cl)c(Cl)c2)c(-c2ccccc2)o1` [Compound 2]: the IC50 in assay [1] came out at 0.058 ± 0.005 µM; in assay [2], 9.5 ± 0.5 µM; in assay [3], 2.8 ± 2.2 µM; in assay [4] it was 4 ± 1 µM.

A word on the IC50: it is the concentration needed to halve the response being measured.
